Assay [1] has as its target T1, HIV-1 integrase (wild-type IN) (Human immunodeficiency virus type 1 group M subtype B, UniProt P12497). The assay is described as follows: biochemical.
In assay [2] the target is T1, HIV-1 integrase (wild-type IN). The experiment in a line: biochemical. The source holds these as a separate data set.
The subject of assay [3] is wild-type HIV-1 strain (strain LAI). The assay is described as follows: Anti-HIV-1 activity in infected human PBMCs. Format: cell-based. To be noted: cytotoxicity versus anti-HIV activity.
[4] abbreviates: Actual ST pIC50, −log IC50 of strand transfer, used for 3D-QSAR.
[5] abbreviates: IC50 ST (strand transfer), wild-type IN 200 nM, 7.5 mM MnCl2.

By IC50 is commonly meant the midpoint of a concentration-inhibition curve.

Read-outs that look alike come from different tables or passages of the source.

As for `O=C(/C=C/c1c(Cl)ccc(Cl)c1Cl)c1cc(Br)cc([N+](=O)[O-])c1O` [Compound 59, 1-(5-Bromo-2-hydroxy-3-nitrophenyl)-3-(2,3,6-trichlorophenyl)propenone], the IC50 is 36 ± 4 µM in assay [1], 21.4 µM in assay [2] (setting [4]) and 21 ± 3 µM in assay [2] (setting [5]).
As for `COc1ccc2cc(C=CC(=O)c3cc(Br)cc(C(=O)O)c3O)ccc2c1` [Compound 48, 5-Bromo-2-hydroxy-3-[3-(6-methoxynaphthalen-2-yl)-acryloyl]benzoic acid], the IC50 in assay [2] (setting [4]) is 55 µM; in assay [2] (setting [5]) it was 54 ± 25 µM.
With `O=C(O)c1cc(Br)cc(C(=O)/C=C/c2cccc(OC(F)(F)F)c2)c1O` [Compound 52, 5-Bromo-2-hydroxy-3-[3-(3-trifluoromethoxyphenyl)-acryloyl]benzoic acid], in assay [1], the IC50 was > 100 µM.
`O=C(/C=C/c1cc(Cl)cc(Cl)c1Cl)c1cc(Br)cc([N+](=O)[O-])c1O` [Compound 58, 1-(5-Bromo-2-hydroxy-3-nitrophenyl)-3-(2,3,5-trichlorophenyl)propenone]: the 50% inhibitory concentration (IC50) was > 333 µM in assay [1], 69.2 µM in assay [2] (setting [4]) and 68 ± 5 µM in assay [2] (setting [5]).
In the case of `O=C(O)c1cc(Cl)cc(C(=O)/C=C/c2ccc(Cl)cc2Cl)c1O` [Compound 27, 5-Chloro-3-[3-(2,4-dichlorophenyl)-acryloyl]-2-hydroxybenzoic acid], the IC50 in assay [2] (setting [5]) was > 100 µM.
`O=C(O)c1cccc(CCCc2ccccc2)c1O` [Compound 9, 2-hydroxy-3-(3-phenylpropyl)benzoic acid]: the IC50 in assay [1] was 91 µM; in assay [2] (setting [5]), > 100 µM.
Turning to `O=Cc1cc(Br)cc(C(=O)NCc2ccc(F)cc2)c1O` [Compound 8, 5-Bromo-N-(4-fluorobenzyl)-3-formyl-2-hydroxybenzamide], the concentration for half-maximal inhibition (IC50) in assay [1] was > 100 µM.
The same measure, in the same setting: with `N#Cc1cc(Br)cc(C(=O)/C=C/c2c(Cl)ccc(Cl)c2Cl)c1O` [Compound 56, 5-Bromo-2-hydroxy-3-[3-(2,3,6--trichlorophenyl)-acryloyl]benzonitrile] the figure was > 100 µM.
For `O=C(NCc1ccc(F)cc1)c1cc(Br)ccc1O` [Compound 63, 5-Bromo-N-(4-fluoro-benzyl)-2-hydroxybenzamide], the IC50 in assay [2] (setting [5]) was > 100 µM.
With `O=C(O)c1cc(F)cc(C(=O)CCc2cc(Cl)ccc2Cl)c1O` [Compound 60, 3-[3-(2,5-dichlorophenyl)propionyl]-5-fluoro-2-hydroxybenzoic acid], the IC50 in assay [1] was > 100 µM.
The same measure, in the same setting: under `Cc1cc(C)cc(/C=C/C(=O)c2cc(Br)cc(C(=O)O)c2O)c1` [Compound 39, 5-Bromo-3-[3-(3,5-dimethylphenyl)-acryloyl]-2-hydroxybenzoic acid] stands > 100 µM.
`O=C(O)c1cc(Br)cc(C(=O)/C=C/c2ccc3sccc3c2)c1O` [Compound 49, 3-(3-Benzo[b]thiophen-5-yl-acryloyl)-5-bromo-2-hydroxybenzoic acid]: the Selectivity index result in assay [3] is “up to 4 fold”.
Consider `O=C(O)c1cc(Br)cc(C(=O)NCc2ccc(F)cc2)c1O` [Compound 61, 5-Bromo-N-(4-fluorobenzyl)-2-hydroxyisophthalamic acid], for which the IC50 in assay [1] was > 100 µM.
In the case of `COc1cc(F)c(/C=C/C(=O)c2cc(Br)cc(C(=O)O)c2O)cc1OC` [Compound 41, 5-Bromo-3-[3-(2-fluoro-4,5-dimethoxyphenyl)-acryloyl]-2-hydroxybenzoic acid], the IC50 in assay [1] is > 100 µM.
On the same count and under the same terms, with `COc1ccc(/C=C/C(=O)c2cc(Br)cc(C(=O)O)c2O)c(Cl)c1OC` [Compound 40, 5-Bromo-3-[3-(2-chloro-3,4-dimethoxyphenyl)-acryloyl]-2-hydroxybenzoic acid] the figure was > 100 µM.
With `O=C(O)c1cc(Br)cc(C(=O)/C=C/c2c(Cl)ccc(Cl)c2Cl)c1O` [Compound 25, 5-Bromo-2-hydroxy-3-[3-(2,3,6-trichlorophenyl)-acryloyl]benzoic acid], the IC50 in assay [2] (setting [4]) is 3.98 µM; in assay [2] (setting [5]), < 3.7 µM.
On to `O=C(O)c1cc(Br)cc(C(=O)/C=C/c2ccccc2-c2ccco2)c1O` [Compound 50, 5-Bromo-3-[3-(2-furan-2-yl-phenyl)-acryloyl]-2-hydroxybenzoic acid], for which, in assay [1], the IC50 is > 100 µM.
As for `Cc1cc(C(=O)O)c(O)c(C(=O)/C=C/c2c(Cl)ccc(Cl)c2Cl)c1` [Compound 57, 2-Hydroxy-5-methyl-3-[3-(2,3,6-trichlorophenyl)-acryloyl]benzoic acid], the IC50 in assay [1] is > 100 µM. Also, the “Times less active than corresponding Br-substituted compound 25” value in assay [2] (ST inhibition, comparison with compound 25) is given as 13 times.
Regarding `Cc1cccc(C(=O)NCc2ccc(F)cc2)c1O` [Compound 62, N-(4-Fluoro-benzyl)-2-hydroxy-3-methylbenzamide], the IC50 in assay [2] (setting [5]) was > 100 µM.

The values are drawn from publication PMC3866048 (Bioorganic & medicinal chemistry, 2011).
